Experimental data taken from PubChem BioAssay AID2060613 (Molecular Pharmacology Branch, DTP, NCI, 2025).

Tested on: 233499-124-R-J3-PDC complex spheroid viability
Assay: Anticancer human tumor 233499-124-R-J3-PDC patient-derived colon adenocarcinoma cell line growth inhibition [CLK]
Details: for IC50: curve of first compound; for viability, T/C: stronger effect = lower value; active = viability on the fitted dose curve at most 10% of control; inactive = the rest
Method in brief: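 Multi-cell-type spheroids combined patient-derived tumor cells with HUVEC endothelial cells and human mesenchymal stem cells. Paired agents were dosed in half-log steps down from about clinical Cmax, or from 10 microM where Cmax was unknown.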

[1] = second compound 0.0316 µM, first compound 0.0316 µM
[2] = second compound 0.0316 µM, first compound 0.1 µM
[3] = second compound 0.0316 µM, first compound 0.316 µM
[4] = second compound 0.0316 µM, first compound 1 µM
[5] = second compound 0.1 µM, first compound 0.0316 µM
[6] = second compound 0.1 µM, first compound 0.1 µM
[7] = second compound 0.1 µM, first compound 0.316 µM
[8] = second compound 0.1 µM, first compound 1 µM
[9] = second compound 0.316 µM, first compound 0.0316 µM
[10] = second compound 0.316 µM, first compound 0.1 µM
[11] = second compound 0.316 µM, first compound 0.316 µM
[12] = second compound 0.316 µM, first compound 1 µM
[13] = second compound 1 µM, first compound 0.0316 µM
[14] = second compound 1 µM, first compound 0.1 µM
[15] = second compound 1 µM, first compound 0.316 µM
[16] = second compound 1 µM, first compound 1 µM
[17] = second compound 3.16 µM, first compound 0.0316 µM
[18] = second compound 3.16 µM, first compound 0.1 µM
[19] = second compound 3.16 µM, first compound 0.316 µM
[20] = second compound 3.16 µM, first compound 1 µM
[21] = second compound 10 µM, first compound 0.0316 µM
[22] = second compound 10 µM, first compound 0.1 µM
[23] = second compound 10 µM, first compound 0.316 µM
[24] = second compound 10 µM, first compound 1 µM
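Also: spheroids exposed to the drug combinations for seven days.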
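For viability, T/C in this document: percent viability relative to DMSO vehicle control wells taken as 100%.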

C=CC(=O)Nc1cc(Nc2nccc(-c3cn(C)c4ccccc34)n2)c(OC)cc1N(C)CCN(C)C + CN1CCN(c2cc(C(=O)Nc3cc4cc(-c5cnn(C)c5)ccc4cn3)ccn2)CC1
> 300 nM: IC50 (second compound 0.0316 µM) | IC50 (second compound 0.1 µM) | IC50 (second compound 0.316 µM)
active: viability, T/C (second compound 1 µM, first compound 0.000949 µM) 4.73% | viability, T/C (second compound 1 µM, first compound 0.003 µM) 9.3% | viability, T/C (second compound 1 µM, first compound 0.00949 µM) 0.69% | viability, T/C (second compound 1 µM, first compound 0.03 µM) 1.14% | viability, T/C (second compound 1 µM, first compound 0.0949 µM) 0.77% | viability, T/C (second compound 1 µM, first compound 0.3 µM) 0.67% | viability, T/C (second compound 3.16 µM, first compound 0.000949 µM) 0.69% | viability, T/C (second compound 3.16 µM, first compound 0.003 µM) 0.65% | viability, T/C (second compound 3.16 µM, first compound 0.00949 µM) 0.63% | viability, T/C (second compound 3.16 µM, first compound 0.03 µM) 0.6% | viability, T/C (second compound 3.16 µM, first compound 0.0949 µM) 0.55% | viability, T/C (second compound 3.16 µM, first compound 0.3 µM) 1.62% | viability, T/C (second compound 10 µM, first compound 0.000949 µM) 0.51% | viability, T/C (second compound 10 µM, first compound 0.003 µM) 0.59% | viability, T/C (second compound 10 µM, first compound 0.00949 µM) 0.58% | viability, T/C (second compound 10 µM, first compound 0.03 µM) 0.51% | viability, T/C (second compound 10 µM, first compound 0.0949 µM) 0.4% | viability, T/C (second compound 10 µM, first compound 0.3 µM) 0.27%
< 0.949 nM: IC50 (second compound 1 µM) | IC50 (second compound 3.16 µM) | IC50 (second compound 10 µM)
inactive: viability, T/C (second compound 0.0316 µM, first compound 0.000949 µM) 85.9% | viability, T/C (second compound 0.0316 µM, first compound 0.003 µM) 100% | viability, T/C (second compound 0.0316 µM, first compound 0.00949 µM) 102% | viability, T/C (second compound 0.0316 µM, first compound 0.03 µM) 104% | viability, T/C (second compound 0.0316 µM, first compound 0.0949 µM) 99.3% | viability, T/C (second compound 0.0316 µM, first compound 0.3 µM) 91.8% | viability, T/C (second compound 0.1 µM, first compound 0.000949 µM) 98% | viability, T/C (second compound 0.1 µM, first compound 0.003 µM) 102% | viability, T/C (second compound 0.1 µM, first compound 0.00949 µM) 93.7% | viability, T/C (second compound 0.1 µM, first compound 0.03 µM) 97.9% | viability, T/C (second compound 0.1 µM, first compound 0.0949 µM) 94.5% | viability, T/C (second compound 0.1 µM, first compound 0.3 µM) 83% | viability, T/C (second compound 0.316 µM, first compound 0.000949 µM) 90.3% | viability, T/C (second compound 0.316 µM, first compound 0.003 µM) 92.2% | viability, T/C (second compound 0.316 µM, first compound 0.00949 µM) 89.7% | viability, T/C (second compound 0.316 µM, first compound 0.03 µM) 89.4% | viability, T/C (second compound 0.316 µM, first compound 0.0949 µM) 93.8% | viability, T/C (second compound 0.316 µM, first compound 0.3 µM) 76.6%

CC(CO)NC(=O)c1cc(-c2ccc(Cl)cc2)nn(-c2cnn(C)c2)c1=O (stereo unspecified) + CN1CCN(c2cc(C(=O)Nc3cc4cc(-c5cnn(C)c5)ccc4cn3)ccn2)CC1
active: viability, T/C [13] 1.24% | viability, T/C [14] 1.01% | viability, T/C [15] 6.77% | viability, T/C [16] 3.75% | viability, T/C (second compound 1 µM, first compound 3.16 µM) 6.32% | viability, T/C (second compound 1 µM, first compound 10 µM) 0.66% | viability, T/C [17] 0.63% | viability, T/C [18] 0.7% | viability, T/C [19] 0.8% | viability, T/C [20] 0.74% | viability, T/C (second compound 3.16 µM, first compound 3.16 µM) 0.73% | viability, T/C (second compound 3.16 µM, first compound 10 µM) 0.73% | viability, T/C [21] 0.53% | viability, T/C [22] 0.48% | viability, T/C [23] 1.5% | viability, T/C [24] 0.55% | viability, T/C (second compound 10 µM, first compound 3.16 µM) 0.5% | viability, T/C (second compound 10 µM, first compound 10 µM) 0.6%
< 31.6 nM: IC50 (second compound 1 µM) | IC50 (second compound 3.16 µM) | IC50 (second compound 10 µM)
> 10000 nM: IC50 (second compound 0.0316 µM) | IC50 (second compound 0.1 µM) | IC50 (second compound 0.316 µM)
inactive: viability, T/C [1] 97.5% | viability, T/C [2] 100% | viability, T/C [3] 98.1% | viability, T/C [4] 92% | viability, T/C (second compound 0.0316 µM, first compound 3.16 µM) 98.5% | viability, T/C (second compound 0.0316 µM, first compound 10 µM) 66.4% | viability, T/C [5] 86.3% | viability, T/C [6] 112% | viability, T/C [7] 103% | viability, T/C [8] 94.2% | viability, T/C (second compound 0.1 µM, first compound 3.16 µM) 94.3% | viability, T/C (second compound 0.1 µM, first compound 10 µM) 80% | viability, T/C [9] 93.3% | viability, T/C [10] 94.4% | viability, T/C [11] 92.2% | viability, T/C [12] 94.8% | viability, T/C (second compound 0.316 µM, first compound 3.16 µM) 103% | viability, T/C (second compound 0.316 µM, first compound 10 µM) 68.9%

CCN1CCN(Cc2ccc(Nc3ncc(F)c(-c4cc(F)c5nc(C)n(C(C)C)c5c4)n3)nc2)CC1 + CN1CCN(c2cc(C(=O)Nc3cc4cc(-c5cnn(C)c5)ccc4cn3)ccn2)CC1
inactive: viability, T/C (second compound 0.0316 µM, first compound 0.00316 µM) 96.4% | viability, T/C (second compound 0.0316 µM, first compound 0.01 µM) 87.2% | viability, T/C [1] 81.5% | viability, T/C [2] 107% | viability, T/C [3] 97.9% | viability, T/C [4] 97.4% | viability, T/C (second compound 0.1 µM, first compound 0.00316 µM) 91.5% | viability, T/C (second compound 0.1 µM, first compound 0.01 µM) 114% | viability, T/C [5] 83.1% | viability, T/C [6] 90.5% | viability, T/C [7] 93.1% | viability, T/C [8] 93.1% | viability, T/C (second compound 0.316 µM, first compound 0.00316 µM) 92.7% | viability, T/C (second compound 0.316 µM, first compound 0.01 µM) 91.6% | viability, T/C [9] 96.2% | viability, T/C [10] 87.5% | viability, T/C [11] 86.9% | viability, T/C [12] 77.9%
active: viability, T/C (second compound 1 µM, first compound 0.00316 µM) 6.1% | viability, T/C (second compound 1 µM, first compound 0.01 µM) 0.82% | viability, T/C [13] 1.32% | viability, T/C [14] 4.68% | viability, T/C [15] 6.35% | viability, T/C [16] 2.16% | viability, T/C (second compound 3.16 µM, first compound 0.00316 µM) 0.75% | viability, T/C (second compound 3.16 µM, first compound 0.01 µM) 0.56% | viability, T/C [17] 0.71% | viability, T/C [18] 0.69% | viability, T/C [19] 1.11% | viability, T/C [20] 1.38% | viability, T/C (second compound 10 µM, first compound 0.00316 µM) 0.5% | viability, T/C (second compound 10 µM, first compound 0.01 µM) 0.56% | viability, T/C [21] 1.04% | viability, T/C [22] 0.52% | viability, T/C [23] 0.59% | viability, T/C [24] 0.61%
> 1000 nM: IC50 (second compound 0.0316 µM) | IC50 (second compound 0.1 µM) | IC50 (second compound 0.316 µM)
< 3.16 nM: IC50 (second compound 1 µM) | IC50 (second compound 3.16 µM) | IC50 (second compound 10 µM)
